From patent US20060035862A1, “Tolerance of 4-(4-(2-pyrrolycarbonyl)-1-piperazinyl)-3-trifluoromethyl-benzoylguanidine in intravenous administration” (Boehringer Ingelheim Pharma KG, priority 2001, published 2006)
Counter-ions that a name gives are not always drawn.

How the values were obtained:
[1] = local tolerance in dogs (bolus and infusion); format: in vivo
Method: In the second step the appropriate ratio of HPβCD to active substance was determined from the local tolerance in dogs.

[2] = local tolerance after intravenous administration; format: in vivo
Method: When they are administered parenterally some local intolerances occasionally arise.

[3] = local tolerance study on rabbits (bolus and 8 minutes infusion); format: in vivo
[4] = stability of the active substance (hydrolysis); format: physicochemical; details: only anhydrous formulations are stable
Description: Therefore, lyophilisates have been developed, which have to be reconstituted before use.

citrated human blood = experiment: in vitro haemolysis test (solution mixed 1:1 with citrated human blood, 37° C.); format: cell-based
Description: In the following description the term “active substance”, on its own or in combination, always denotes 4-(4-(2-pyrrolylcarbonyl)-1-piperazinyl)-3-trifluoromethyl-benzoylguanidine hydrochloride, unless otherwise stated. Both a monohydrate and a hemihydrate of 4-(4-(2-pyrrolylcarbonyl)-1-piperazinyl)-3-trifluoromethyl-benzoylguanidine hydrochloride may be obtained. For all the experiments the hemihydrate was used. The quantitative data used hereinafter always relate to the free base; i.e. the quantities specified correspond to the theoretical amount of free base, whereas in reality a correspondingly larger amount of hemihydrate was added. In each case glucose was used to render the solution isotonic. The isotonic nature of the solutions was checked in each case by lowering the freezing point. In in-vitro haemolysis tests in each case the solution to be tested was mixed with citrated human blood in the ratio 1:1 and kept at 37° C. during the incubation period. […]

[5] = local tolerance trial on rats (30 minutes' infusion into the caudal vein); format: in vivo

For `N=C(N)NC(=O)c1ccc(N2CCN(C(=O)c3ccc[nH]3)CC2)c(C(F)(F)F)c1` [active substance, 4-(4-(2-pyrrolylcarbonyl)-1-piperazinyl)-3-trifluoromethyl-benzoylguanidine hydrochloride], which local tolerance ([1]; weight ratio HPβCD to active substance 10:1, bolus, active substance concentration 10 mg/ml) is on record?
Its local tolerance is “suitable”.

What about the local tolerance ([1]; weight ratio HPβCD to active substance 10:1, infusion, active substance concentration between 1.5 mg/ml and 3 mg/ml) of the same molecule?
Its local tolerance is “suitable”.

And the local tolerance [2]?
The local tolerance was “locally poorly tolerated”.

And the local tolerance ([3]; 1% active substance solutions containing 10% HPβCD)?
Its local tolerance is “locally well-tolerated”.

And the local tolerance ([3]; 1% active substance solutions with phospholipid and sodium cholate (mixed micelles))?
Its local tolerance is “locally well-tolerated”.

What about the stability [4] of the same molecule?
The stability was “prone to hydrolysis”.

And the degree of haemolysis (citrated human blood; 10 mg/ml active substance, 100 mg/ml PVP 17 PF, aqueous isotonic solution, incubation 45 minutes)?
Its degree of haemolysis is 17%.

What about the haemolysis observed (citrated human blood; 1% aqueous isotonic active substance solution containing 10% HPβCD, incubation 45 minutes) of the same molecule?
The haemolysis observed was “no haemolysis”.

What about the “degree of haemolysis (%)” value (citrated human blood; active substance 0.5 mg/ml, aqueous isotonic solution, no tolerance measures, incubation two hours) of the same molecule?
Its value is 0%.

And the “degree of haemolysis (%)” value (citrated human blood; active substance 1.0 mg/ml, aqueous isotonic solution, no tolerance measures, incubation two hours)?
The value was 1%.

And the “degree of haemolysis (%)” value (citrated human blood; active substance 1.5 mg/ml, aqueous isotonic solution, no tolerance measures, incubation two hours)?
Its value is 4%.

What about the “degree of haemolysis (%)” value (citrated human blood; active substance 1.5 mg/ml, no tolerance measures, incubation 45 minutes) of the same molecule?
The value was 0%.

What about the “degree of haemolysis (%)” value (citrated human blood; active substance 10 mg/ml, HPβCD 0 mg/ml, incubation 45 minutes) of the same molecule?
Its value is 100%.

And the “degree of haemolysis (%)” value (citrated human blood; active substance 10 mg/ml, HPβCD 100 mg/ml, incubation 45 minutes)?
Its value is 0%.

What about the “degree of haemolysis (%)” value (citrated human blood; active substance 10 mg/ml, Poloxamer 188 0 mg/ml, incubation 45 minutes) of the same molecule?
Its value is 99%.

And the “degree of haemolysis (%)” value (citrated human blood; active substance 10 mg/ml, Poloxamer 188 100 mg/ml, incubation 45 minutes)?
Its value is 4%.

And the “degree of haemolysis (%)” value (citrated human blood; active substance 10 mg/ml, Poloxamer 188 200 mg/ml, incubation 45 minutes)?
The value was 0%.

What about the “degree of haemolysis (%)” value (citrated human blood; active substance 10.0 mg/ml, no tolerance measures, incubation 45 minutes) of the same molecule?
The value was 100%.

And the “degree of haemolysis (%)” value (citrated human blood; active substance 10 mg/ml, phospholipid 60 mg/ml, sodium glycocholate 32 mg/ml)?
Its value is 2%.

And the “degree of haemolysis (%)” value (citrated human blood; active substance 10 mg/ml, phospholipid 60 mg/ml, sodium glycocholate 36 mg/ml)?
The value was 7%.

What about the “degree of haemolysis (%)” value (citrated human blood; active substance 10 mg/ml, phospholipid 75 mg/ml, sodium cholate 50 mg/ml, incubation 45 minutes) of the same molecule?
The value was 7%.

What about the “degree of haemolysis (%)” value (citrated human blood; active substance 10 mg/ml, phospholipid 150 mg/ml, sodium cholate 100 mg/ml, incubation 45 minutes) of the same molecule?
The value was 0%.

And the haemolytic activity (citrated human blood; ratio of HPβCD to active substance 6.67:1, active substance concentration 9 mg/ml)?
The haemolytic activity was “not haemolytic”.

What about the local tolerance ([5]; 0.75 mg/ml, no tolerance measures, 30 minutes' infusion into the caudal vein) of the same molecule?
The local tolerance was “poorly tolerated”.

What about the local tolerance ([5]; 1.5 mg/ml with 100 mg/ml Poloxamer 188, 30 minutes infusion into the caudal vein, compared with 1.5 mg/ml without excipient) of the same molecule?
The local tolerance was “better tolerated”.
